Data set [1] deals with liver glycogen deposition. In words: Liver glycogen deposition. Format: in vivo, Male Sprague Dawley rats. The following applies: 3 mg/kg intratracheal, 2 doses 24 hrs apart, adrenalectomized rats. The method, then: Male Sprague Dawley rats, weighing 190-220 g were bilaterally adrenalectomized and maintained on 0.9% saline solution throughout the experiment. On day 5th and 6th of adrenalectomy, animals were made into different groups, test compounds prepared in cold saline (sonicated for 30 min) were instilled intratracheally 2 doses @3 mg/kg, 24 hrs apart. At 15 hrs after the last treatment, animals were sacrificed and livers were excised and weighed. The glycogen content of the livers was determined by anthrone method. Briefly, a weighed quantity of liver tissue was homogenized with 5% trichloroacetic acid, supernatant mixed with ethanol and kept overnight for precipitation. The glycogen thus extracted was estimated as glucose generated after acid hydrolysis by addition of anthrone reagent at 620 nm. Glycogen content was expressed as mg/100 g liver.

Data set [2] deals with liver glycogen deposition. In words: Liver glycogen deposition. The data set is classed as in vivo, Male Sprague Dawley rats. Conditions: 3 mg/kg intratracheal, 2 doses 24 hrs apart, adrenalectomized rats. This is another data set of the same source.
The target of data set [3] is T1, Human Glucocorticoid receptor (Homo sapiens, UniProt P04150).
T1 construct: expressed in transfected cells; host or cells: human HeLa cells
T1 sequence (P04150 1-777): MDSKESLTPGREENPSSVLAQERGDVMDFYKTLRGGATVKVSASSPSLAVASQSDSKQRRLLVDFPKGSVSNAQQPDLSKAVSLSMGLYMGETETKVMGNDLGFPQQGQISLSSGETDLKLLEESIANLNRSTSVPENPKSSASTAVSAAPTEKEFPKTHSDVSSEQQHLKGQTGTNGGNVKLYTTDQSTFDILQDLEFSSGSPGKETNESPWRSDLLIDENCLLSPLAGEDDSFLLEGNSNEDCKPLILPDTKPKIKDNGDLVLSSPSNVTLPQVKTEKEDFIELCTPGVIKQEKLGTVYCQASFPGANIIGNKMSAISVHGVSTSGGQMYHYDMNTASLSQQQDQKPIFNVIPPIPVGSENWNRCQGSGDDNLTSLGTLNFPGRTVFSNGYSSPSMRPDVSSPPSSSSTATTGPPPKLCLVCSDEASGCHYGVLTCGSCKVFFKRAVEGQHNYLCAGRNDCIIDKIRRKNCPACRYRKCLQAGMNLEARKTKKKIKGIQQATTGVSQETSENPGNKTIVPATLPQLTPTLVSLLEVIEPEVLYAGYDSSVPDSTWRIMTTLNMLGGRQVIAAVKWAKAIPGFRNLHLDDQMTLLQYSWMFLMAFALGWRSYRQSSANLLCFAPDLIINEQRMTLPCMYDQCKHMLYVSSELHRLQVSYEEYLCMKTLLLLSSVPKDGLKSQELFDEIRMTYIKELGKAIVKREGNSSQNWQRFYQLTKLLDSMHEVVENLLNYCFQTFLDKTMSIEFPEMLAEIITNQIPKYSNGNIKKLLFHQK
Put plainly: Human glucocorticoid receptor binding (in vitro), [3H]dexamethasone radioligand. Conditions: at 0.1 μM. The protocol: The activity of test compounds on glucocorticoid receptor was assessed using radioligand binding assays.
The % inhibition was evaluated using a single concentration of test compound and the corresponding radiolabeled ligand. Results are presented as the percent inhibition of specific binding. The values are average of duplicate determinations for each concentration.

The next data set relates to croton oil ear edema. In words: Croton oil ear edema. Format: in vivo, Mice (male, CD-1). The following applies: for Inhibition of ear edema (%): 1.6 μg, applied to ear 2 hrs before croton oil. The protocol: Mice (male, CD-1) were made into different groups. A method similar to one reported in the literature was used. Test compounds were dissolved in pyridine-water-acetone (4:2:14) solution 10 μl of this solution of compound or vehicle solution was applied to the left ear of the mice. The right ear of each mouse was applied simultaneously with 10 μl of pyridine: water: acetone (4:2:14) solution. After 2 hrs of compound or vehicle application, 10 μl of croton oil solution was applied to the left ear of all animals. After 6 hr of croton oil treatment the animals were sacrificed; ears were excised and weighed separately.

Data set [4] is described as follows: Sephadex-induced lung edema. The following applies: Sprague-Dawley, rat, thymus, other: intratracheal; i.t., 24 hrs and 2 hrs prior to Sephadex; read-out: ED50 Thymus involution. The data set is classed as in vivo, SD rats. The protocol: (§1) Sephadex® G-200 was prepared in sterile saline (10 mg/ml) and allowed to swell for at least 3 days at room temperature. Test compounds were administered intratracheally at 24 hrs and 2 hrs prior to intratracheal administration of Sephadex® (5 mg/kg) under light ether anesthesia. Vehicle control animals were administered vehicle instead of Sephadex®. At 24 hr after Sephadex® instillation, lung and thymus were excised from individual animals and weighed. Wet weights of lungs and thymus were corrected for 100 g of initial body weight. The percentage increase in lung weight caused by Sephadex® and its inhibitions by the compounds, were calculated. The percentage inhibitions of thymus compared to vehicle control group were also calculated

In data set [5] the test system is Sephadex-induced lung edema. Put plainly: Sephadex-induced lung edema. Conditions: Rattus norvegicus; i.t., 24 hrs and 2 hrs prior to Sephadex; read-out: ED50 Lung edema inhibition. The data set is classed as in vivo, SD rats. The method, then: as §1
For a further data set, the system named is cotton pellet granuloma. Put plainly: Cotton pellet granuloma test. Format: in vivo, SD rats. The following applies: 100 mcg/pellet. The method, then: SD rats were used for assessing anti-inflammatory activity of test compound using cotton pellet granuloma method. Sterilized cotton pellets weighing 20 mg were prepared. Test compounds were dissolved in acetone so as to get the required quantity for each cotton pellet in 500 μl. Different pellets were impregnated with 500 μl of acetone to contain required quantity of test compounds and allowed to dry. Vehicle control pellets were impregnated with 500 μl acetone.
Rats were made into different groups. Two cotton pellets were surgically implanted into the scapular region of each rat. On sixth day of such implantation, pellets along with granuloma were taken out. Thymus gland was also separated from each animal and weighed. The pellets with granuloma were dried for 20 hrs at 60° C. and weighed. Mean weights of dry granuloma and thymus, body weight gain/100 g body weights were calculated.

Data set [6] relates to ovalbumin-induced increase in intranasal pressure. Put plainly: Ovalbumin-induced increase in intranasal pressure. The data set is classed as in vivo, guinea pigs. Conditions: intranasal instillation 24 hr and 2 hr prior to ovalbumin challenge; FIG. 2. The protocol: Animals sensitized with ovalbumin as described above were used for experiments determining intranasal pressure. Intranasal instillation of compound of formula I, fluticasone propionate or placebo was done 24 hr and 2 hr prior to challenge with ovalbumin. The nasopharynx was catheterized with a PE cannula, one end of which was attached to pressure transducer and other to the nebulizer. Ovalbumin (5%) was nebulized into the nasal cavity for 10 min. The changes in intranasal pressure were recorded for following 45 min and differential pressure (dP) was calculated.

Data set [7] has as its system skin atrophy and systemic side effects. Put plainly: Skin atrophy and systemic side effects on topical application. Format: in vivo, Male SD rats. Conditions: dermal, daily 14 days. From the text:
Male SD rats were lightly anesthetized with isoflurane. Bilaterally paired sites were marked on the back, one on each side of the flank. One of the sites was applied with an appropriate dose of compound of the present invention and fluticasone propionate dissolved in the acetone, daily for a period of 14 days. Contralateral site served as solvent treated controls and received acetone. Body weights were monitored on 0-14 days. On day 15, twenty-four hours after the last applications, blood was collected from the tail vein to determine total and differential blood cell count. The animals were euthanized and full-thickness skin from shaved area was punched to get 15 mm diameter plugs. The subcutaneous fat and muscle was removed and the punched plug was weighed. Thymus weights of each animal were also determined as a marker of systemic corticosteroid activity

The structures appear in SMILES notation.

From US9458187B2, “Methods for treatment of inflammatory conditions using S-[4-(3-fleuro-3-methylbutyryloxy)but-2-ynyl]6α, 9α-difluoro-17α-(furan-2-yl) carbonyloxy-11β-hydroxy-16α-methyl-3-oxoandrosta-1,4-diene-17β-carbothioate” (Sun Pharma Advanced Research Company Limited, priority 2013, dated 2016) come the findings set out here.

Regarding `C[C@@H]1C[C@H]2[C@@H]3CCC4=CC(=O)C=C[C@]4(C)[C@@]3(Cl)[C@@H](O)C[C@]2(C)[C@@]1(OC(=O)c1ccco1)C(=O)CCl` [Mometasone furoate], the Glycogen content in data set [1] came out at 1117.32 mg/100 g liver. In addition, the “% Inhibition of thymus” value in data set [2] turned out to be 43.51%.

With `C[C@@H]1CC2C3C[C@H](F)C4=CC(=O)C=C[C@]4(C)[C@@]3(F)[C@@H](O)C[C@]2(C)[C@@]1(OC(=O)c1ccco1)C(=O)O` (stereo partly shown) [formula III], in data set [3], the inhibition at 0.1 µM turned out to be 2%.

Take `C[C@@H]1CC2C3C[C@H](F)C4=CC(=O)C=C[C@]4(C)[C@@]3(F)[C@@H](O)C[C@]2(C)[C@@]1(OC(=O)c1ccco1)C(=O)SCC#CCO` (stereo partly drawn) [formula II, S-(4-Hydroxy-but-2-ynyl)6α,9α-difluoro-17α-(furan-2-yl)carbonyloxy-11β-hydroxy-16α-methyl-3-oxoandrosta-1,4-diene-17β-carbothioate]: the “potency in topical in vivo anti-inflammatory models such as croton oil ear edema” value in the data set with croton oil ear edema (compared with compound of the present invention) is listed as “significantly less potent”.

Take `CCCC1O[C@@H]2C[C@H]3[C@@H]4CCC5=CC(=O)C=C[C@]5(C)[C@H]4[C@@H](O)C[C@]3(C)[C@]2(C(=O)CO)O1` (stereo partly shown) [Budesonide]: the ED50 at 24 h in data set [4] stood at 0.68 mg/kg. Also, the Glycogen content in data set [1] amounted to 552.77 mg/100 g liver. The “% Inhibition of thymus” value in data set [2] was 65.02%.

With `C[C@@H]1C[C@H]2[C@@H]3CCC4=CC(=O)C=C[C@]4(C)[C@@]3(F)[C@@H](O)C[C@]2(C)[C@@]1(O)C(=O)CO` [Dexamethasone], the “Inhibition of ear edema (%)” value in the data set with croton oil ear edema worked out at 50.05%.

As to `CC(C)C(=O)OCC(=O)[C@@]12O[C@H](C3CCCCC3)O[C@@H]1C[C@H]1[C@@H]3CCC4=CC(=O)C=C[C@]4(C)[C@H]3[C@@H](O)C[C@@]12C` [Ciclesonide], the ED50 in [5] was found to be 0.388 mg/kg. The ED50 at 24 h in data set [4] was 3.13 mg/kg. The molecule also registered a Glycogen content in [1] of 263.96 mg/100 g liver. In the data set on cotton pellet granuloma, the “Mean % Inhibition of Granuloma A” value is listed as 63.38% and the “Thymus wt. (% Decrease) B” value is listed as 15.16%. Moreover, in [2], the “% Inhibition of thymus” value amounted to 61.34%.

With `CCC(=O)O[C@]1(C(=O)SCF)[C@H](C)C[C@H]2[C@@H]3C[C@H](F)C4=CC(=O)C=C[C@]4(C)[C@@]3(F)[C@@H](O)C[C@@]21C` [Fluticasone propionate], the ED50 in [5] is 0.086 mg/kg. Besides, in [4], the median effective dose (ED50) at 24 h amounted to 0.36 mg/kg. Moreover, the “inhibition of intranasal pressure” value in data set [6] is listed as “equivalent inhibition”. Further, in data set [7] (6 μg/site), the “% Body Weight Gain” value is recorded as 68.1%, the “% Inhibition Lymphocytes” value is 31.7%, the “% Inhibition Neutrophils” value was determined as 25.8% and the “% Inhibition Skin weight” value turned out to be 25.3%. Further, in [7] (6 μg/site), the “% Inhibition Thymus” value is listed as 2.0% and the “% Inhibition Total leukocyt” value is on record as 31.4%. For the same molecule, in data set [7] (18 μg/site), the “% Body Weight Gain” value came to 67.4%, the “% Inhibition Lymphocytes” value was 15.9%, the “% Inhibition Neutrophils” value is given as 24.5% and the “% Inhibition Skin weight” value amounted to 20.8%. In addition, in data set [7] (18 μg/site), the “% Inhibition Thymus” value came to 5.4% and the “% Inhibition Total leukocyt” value came out at 17.5%. In data set [7] (60 μg/site), the “% Body Weight Gain” value was found to be 61.9%, the “% Inhibition Lymphocytes” value is given as 15.6%, the “% Inhibition Neutrophils” value is listed as 14.5% and the “% Inhibition Skin weight” value is given as 27.9%. Moreover, in data set [7] (60 μg/site), the “% Inhibition Thymus” value came to 23.0% and the “% Inhibition Total leukocyt” value is recorded as 15.2%. Moreover, in [7] (180 μg/site), the “% Body Weight Gain” value is 42.5%, the “% Inhibition Lymphocytes” value is listed as 34.1%, the “% Inhibition Neutrophils” value is recorded as 24.6% and the “% Inhibition Skin weight” value was determined as 30.0%. In addition, in data set [7] (180 μg/site), the “% Inhibition Thymus” value is on record as 55.0% and the “% Inhibition Total leukocyt” value is given as 32.7%. For the same molecule, the “Inhibition of ear edema (%)” value in the data set with croton oil ear edema is 81.09%. Moreover, the Glycogen content in data set [1] stood at 1514.65 mg/100 g liver. Further, in the data set with cotton pellet granuloma, the “Mean % Inhibition of Granuloma A” value is 66.04% and the “Thymus wt. (% Decrease) B” value was 73.56%. Also, the “% Inhibition of thymus” value in [2] amounted to 70.17%.

Broadly, the inhibition is the percentage by which the read-out fell short of the control. The low end stands for a response near the control, the high end for a response far below the control. Usually ED50 stands for the dose at which the effect has come halfway, by size or by number of responders.
